Measurements from US20080200526A1, “Composition for the Prevention and Treatment of Allergic Inflammatory Disease” (priority 2004, published 2008).

Columns and labels:
bronchial asthma = details: Sakurada T. et al., Eur J Pharmacol 1999, cited from earlier work
asthma = details: clinical test, Lilly; Evans D J, Thorax 1996; cited from earlier work
[1] = system: mouse models of ovalbumin-induced asthma; assay: Lung histopathological observation and histomorphology; type: in vivo; details: for Alveolar Area (proportion of alveolar lumen in lung tissue) / Counts of goblet Cells Brochiole / Counts of goblet Cells Bronchus / Wall Thick. Brochiole / Wall Thick. Bronchus: 18 days, mean ± SD
Procedure: (§1) The benzamidine compound of Chemical Formula 1 was assayed for therapeutic effect on allergic inflammation in mouse models of ovalbumin-induced asthma. Starting at the sensitization with ovalbumin, the administration of the benzamidine compound was for 18 consecutive days. The experimental animals were re-exposed to ovalbumin 15 days after the sensitization and then sacrificed 3 days after the re-exposure. Changes in lung weight, cellular components of peripheral blood and bronchoalveolar lavage fluid, and lung histopathology were observed.
(§2) A total of 20 female C57BL/6 mice (6-week-old, BioGenomics, Korea) was adapted to a laboratory environment for 6 days before being used in earnest experiments. While being housed at a density of five in a plastic cage, the experimental animals were bred in a breeding room with controlled temperature (20 to 25° C.) and humidity (30 to 35%). Under light-dark cycles of 12 hours, mice were allowed to have free access to feedstuff and tap water. While asthma was induced in 15 mice by ovalbumin, 5 mice were used as a non-treated group.
(§3) 100 mg and 200 mg of N-hydroxy-4-{5-[4-(5-isopropyl-2-methyl-1,3-thiazol-4-yl)phenoxy]pentoxy}-benzamidine were completely dissolved in 5 ml of sterilized distilled water. The benzamidine compound in the solutions was orally administered at doses of 100 mg and 200 mg per kg of body weight once a day from the day of the sensitization with ovalbumin. The control group was administered with equal volumes of sterilized distilled water in the same manner.
(§4) A solution of 200 μg of ovalbumin (Grade V; Sigma, St. Louis, Mo., USA) and 180 mg of aluminum hydroxide (Al(OH)3, dried powder gel; Aldrich, Milwaukee, USA) in 4 ml of physiological saline was allowed to stand at 4° C. overnight and was administered to the experimental animals (200 μl, abdominal injection) for sensitization. As for the non-treated group, a solution of only aluminum hydroxide in saline was injected. 15 days after sensitization, a 1.5% ovalbumin solution was sprayed in air using a nebulizer, followed by exposing the experimental animals to the spray for 10 min to induce asthma therein. The non-treated group was exposed only to saline in the same manner. All the experimental animals were sacrificed 3 days after the exposure.
The lungs removed after asthma induction were fixed in 10% neutral formalin and embedded in paraffin. The paraffin-embedded tissue was sliced at a thickness of 3 to 4 μm, stained with hematoxylin-eosin or Masson's trichrome and observed through an optical microscope.
From the lung tissue specimen prepared above, alveolar areas (proportion of alveolar lumen in lung tissue), populations of the goblet cells present in the bronchus and the bronchiole, and wall thicknesses of the bronchus and the bronchiole were examined using an analysis Image processing system (SIS Germany). The alveolar areas are represented as percentages, the populations of the goblets cells in the bronchus and bronchiole as counts per 1,000 cells, and the wall thickness of the bronchus and bronchiole in μm in Table 5.

[2] = Change in body weight gain, mouse model of ovalbumin-induced asthma; type: in vivo; details: mean ± SD, in g (unit assumed)
Procedure: as §1, §2, §3, §4
All the experimental animals were measured for body weight 1, 7, 14, 16 and 17 days after administration. In order to reduce difference among individuals due to feedstuff intake, all experimental animals were starved for 18 hours or more on the beginning day of the administration and on the sacrificing day before weight measurement. To minimize the difference of change in body weight of individual animals, body weight gains during time periods of the sensitization, the asthma induction after exposure and the whole experiment were calculated.

[3] = system: mouse models of ovalbumin-induced asthma; assay: Lung weight, mouse model of ovalbumin-induced asthma; type: in vivo; details: 18 days, mean ± SD; for Lung Relative Wt.: percentage of body weight
Procedure: as §1, §2, §3, §4
On the final day of experiment, the lungs were separated from adjacent organs. The removed lungs were weighed in grams. To minimize errors due to the difference in body weight among individual animals, the relative weight of the lungs was calculated as a percentage of body weight using the following mathematic formula 1.

[4] = system: mouse models of ovalbumin-induced asthma; assay: Fractional count of cellular components of bronchoalveolar lavage fluid; type: in vivo; details: 18 days, mean ± SD
Procedure: as §1, §2, §3, §4
On the final day of experiment, secretions present in bronchi and alveola were examined for cytological constitution. To this end, after being etherized, the experimental animals were operated to open the cervical region and the thorax. The jugular vein was allowed to bleed, followed by endotracheal intubation. 3 ml of phosphate buffered saline was injected twice through the tube and the thorax was massaged for 30 sec to obtain cell suspension from the lungs. The cell suspension was centrifuged at 3000 rpm for 30 min and resuspended in DPBS (Gibco BRL, NY, USA). After the cell suspension was smeared on a slide glass, the cells were stained with Giemsa. A total count of the whole cells present in the smear and fractional counts of neutrophils, eosinophils, basophils, macrophages, and epithelioid cells were measured and are given in Table 4, below.

[5] = system: mouse models of ovalbumin-induced asthma; assay: Total count of leukocytes in blood and fractional calculation of leukocytes; type: in vivo; details: 18 days; for Total leukocytes in blood: mean ± SD; for Basophils in blood / Eosinophils in blood / Lymphocytes in blood / Monocytes in blood / Neutrophils in blood: portion per 200 leukocytes
Procedure: as §1, §2, §3, §4
On the final day of experiment, all the experimental animals were etherized and underwent laparotomy to expose the abdominal vena cava, from which 1 ml of blood was then taken. Using a hemocytometer, a blood sample was measured for total leukocyte counts in a ×10^3/1 mm^3 unit. Immediately after blood collection, the blood sample was smeared on slide glasses, fixed with methanol, and stained with Giemsa. And then, lymphocytes, eosinophils, neutrophils, monocytes, and basophils were calculated for their respective portions per 200 leukocytes and are represented as percentages in Table 3, below.

For `COc1ccc(/C=C/CCCCOc2cccc(OCCCCC(=O)O)c2CCC(=O)O)cc1` [ONO-4057], the “Effect on bronchial asthma, in combination” value (bronchial asthma; in combination with the cysteinyl leukotriene receptor antagonist Zafirlukast) is given as “medicinal effect on bronchial asthma” and the “Effect on bronchial asthma, used alone” value (bronchial asthma; used alone) is given as “ineffective for the treatment thereof”.
For `CCCc1c(OCCCOc2cc(O)c(-c3ccc(F)cc3)cc2CC)cccc1Oc1ccccc1C(=O)O` [LY293111], the “Effect in treating asthma” value (asthma) is listed as “ineffective in treating asthma”.
With `Cc1nc(-c2ccc(OCCCCCOc3ccc(C(=N)NO)cc3)cc2)c(C(C)C)s1` [Cpd. of Formula 1, N-hydroxy-4-{5-[4-(5-isopropyl-2-methyl-1,3-thiazol-4-yl)phenoxy]pentoxy}-benzamidine] the “Alveolar Area (proportion of alveolar lumen in lung tissue)” value ([1]; 100 mg/kg orally once a day) was 55.53 ± 4.26 # percentages, the “Counts of goblet Cells Brochiole” value ([1]; 100 mg/kg orally once a day) was 53.80 ± 11.73 ## counts per 1,000 cells and the “Counts of goblet Cells Bronchus” value ([1]; 100 mg/kg orally once a day) was 317.60 ± 75.46 # counts per 1,000 cells. The “Wall Thick. Brochiole” value ([1]; 100 mg/kg orally once a day) was 27.73 ± 4.68 ## μm, the “Wall Thick. Bronchus” value ([1]; 100 mg/kg orally once a day) was 60.92 ± 8.53 # μm and the “Alveolar Area (proportion of alveolar lumen in lung tissue)” value ([1]; 200 mg/kg orally once a day) was 61.62 ± 6.93 # percentages. For the same compound, the “Counts of goblet Cells Brochiole” value ([1]; 200 mg/kg orally once a day) was 42.80 ± 10.69 # counts per 1,000 cells, the “Counts of goblet Cells Bronchus” value ([1]; 200 mg/kg orally once a day) was 256.80 ± 71.58 # counts per 1,000 cells and the “Wall Thick. Brochiole” value ([1]; 200 mg/kg orally once a day) was 24.79 ± 3.03 # μm. For the same compound, the “Wall Thick. Bronchus” value ([1]; 200 mg/kg orally once a day) was 40.69 ± 5.37 # μm, the “Inflammatory cell populations in tissues around the primary bronchiole and alveola and around bronchial epithelia (FIG. 1)” value ([1]; compared to the control group, 100 and 200 mg/kg, optical microscope) was “reduction of the inflammatory cell population in the tissues in a dose-dependent pattern” and the “Body weight gain, Asthma induction period after exposure” value ([2]; 100 mg/kg orally once a day) was 0.34 ± 0.34. For the same compound, the “Body weight gain, Over whole experimental period” value ([2]; 100 mg/kg orally once a day) was 2.68 ± 0.52, the “Body weight gain, Sensitization period” value ([2]; 100 mg/kg orally once a day) was 3.50 ± 0.51 and the “Body weight gain, Asthma induction period after exposure” value ([2]; 200 mg/kg orally once a day) was 0.36 ± 0.59. For the same compound, the “Body weight gain, Over whole experimental period” value ([2]; 200 mg/kg orally once a day) was 2.90 ± 0.40, the “Body weight gain, Sensitization period” value ([2]; 200 mg/kg orally once a day) was 3.08 ± 0.71 and the “Lung Absolute Wt.” value ([3]; 100 mg/kg orally once a day) was 0.128 ± 0.007 ## g. For the same compound, the “Lung Relative Wt.” value ([3]; 100 mg/kg orally once a day) was 0.697 ± 0.030 ## %, the “Lung Absolute Wt.” value ([3]; 200 mg/kg orally once a day) was 0.125 ± 0.008 # g and the “Lung Relative Wt.” value ([3]; 200 mg/kg orally once a day) was 0.682 ± 0.030 ## %. The “Basophils in bronchoalveolar lavage fluid” value ([4]; 100 mg/kg orally once a day) was 0.50 ± 0.50%, the “Epithelioids in bronchoalveolar lavage fluid” value ([4]; 100 mg/kg orally once a day) was 21.00 ± 14.77% and the “Lymphocytes in bronchoalveolar lavage fluid” value ([4]; 100 mg/kg orally once a day) was 56.90 ± 15.04%. For the same compound, the “Monocytes in bronchoalveolar lavage fluid” value ([4]; 100 mg/kg orally once a day) was 3.10 ± 3.73%, the “Neutrophils in bronchoalveolar lavage fluid” value ([4]; 100 mg/kg orally once a day) was 17.50 ± 8.06 % and the “eosinophils in bronchoalveolar lavage fluid” value ([4]; 100 mg/kg orally once a day) was 4.30 ± 1.44 %. For the same compound, the “Basophils in bronchoalveolar lavage fluid” value ([4]; 200 mg/kg orally once a day) was 0.10 ± 0.22 %, the “Epithelioids in bronchoalveolar lavage fluid” value ([4]; 200 mg/kg orally once a day) was 15.50 ± 9.74% and the “Lymphocytes in bronchoalveolar lavage fluid” value ([4]; 200 mg/kg orally once a day) was 56.80 ± 22.52%. The “Monocytes in bronchoalveolar lavage fluid” value ([4]; 200 mg/kg orally once a day) was 3.50 ± 2.57%, the “Neutrophils in bronchoalveolar lavage fluid” value ([4]; 200 mg/kg orally once a day) was 13.90 ± 9.85% and the “eosinophils in bronchoalveolar lavage fluid” value ([4]; 200 mg/kg orally once a day) was 3.60 ± 2.88 %. The “Total leukocytes in blood” value ([5]; 100 mg/kg orally once a day) was 10.68 ± 1.76 ## ×10^3/1 mm^3, the Basophils in blood ([5]; 100 mg/kg orally once a day) was 0.10 ± 0.20% and the Eosinophils in blood ([5]; 100 mg/kg orally once a day) was 49.60 ± 15.79 %. It also gave a Lymphocytes in blood ([5]; 100 mg/kg orally once a day) of 41.70 ± 12.90 %, a Monocytes in blood ([5]; 100 mg/kg orally once a day) of 3.70 ± 1.60% and a Neutrophils in blood ([5]; 100 mg/kg orally once a day) of 4.90 ± 2.90 %. The “Total leukocytes in blood” value ([5]; 200 mg/kg orally once a day) was 10.44 ± 1.81 ## ×10^3/1 mm^3, the Basophils in blood ([5]; 200 mg/kg orally once a day) was 0.00 ± 0.00% and the Eosinophils in blood ([5]; 200 mg/kg orally once a day) was 36.90 ± 8.33 # %. The Lymphocytes in blood ([5]; 200 mg/kg orally once a day) was 53.80 ± 5.50 # %, the Monocytes in blood ([5]; 200 mg/kg orally once a day) was 4.40 ± 1.70 % and the Neutrophils in blood ([5]; 200 mg/kg orally once a day) was 5.20 ± 2.00 %.
